Patent US9828379B2 (priority 2013, dated 2017)
Like-named read-outs stand apart in the source and are kept apart here.

What was measured:
MAGL [1] = molecular target: T1, MAGL (Mus musculus, UniProt O35678); experiment: biochemical
T1 sequence (O35678 1-303): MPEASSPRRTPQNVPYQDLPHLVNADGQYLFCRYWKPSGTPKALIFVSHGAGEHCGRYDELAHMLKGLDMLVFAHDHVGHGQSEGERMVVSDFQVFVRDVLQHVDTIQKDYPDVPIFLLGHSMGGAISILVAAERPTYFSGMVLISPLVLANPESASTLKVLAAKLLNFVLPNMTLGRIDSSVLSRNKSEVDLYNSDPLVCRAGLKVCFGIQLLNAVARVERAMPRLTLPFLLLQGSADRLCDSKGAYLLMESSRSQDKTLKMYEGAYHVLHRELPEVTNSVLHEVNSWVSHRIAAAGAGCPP

FAAH [2] = molecular target: T2, FAAH (Mus musculus, UniProt O08914); experiment: biochemical; settings: in vitro competitive ABPP
T2 sequence (O08914 1-579): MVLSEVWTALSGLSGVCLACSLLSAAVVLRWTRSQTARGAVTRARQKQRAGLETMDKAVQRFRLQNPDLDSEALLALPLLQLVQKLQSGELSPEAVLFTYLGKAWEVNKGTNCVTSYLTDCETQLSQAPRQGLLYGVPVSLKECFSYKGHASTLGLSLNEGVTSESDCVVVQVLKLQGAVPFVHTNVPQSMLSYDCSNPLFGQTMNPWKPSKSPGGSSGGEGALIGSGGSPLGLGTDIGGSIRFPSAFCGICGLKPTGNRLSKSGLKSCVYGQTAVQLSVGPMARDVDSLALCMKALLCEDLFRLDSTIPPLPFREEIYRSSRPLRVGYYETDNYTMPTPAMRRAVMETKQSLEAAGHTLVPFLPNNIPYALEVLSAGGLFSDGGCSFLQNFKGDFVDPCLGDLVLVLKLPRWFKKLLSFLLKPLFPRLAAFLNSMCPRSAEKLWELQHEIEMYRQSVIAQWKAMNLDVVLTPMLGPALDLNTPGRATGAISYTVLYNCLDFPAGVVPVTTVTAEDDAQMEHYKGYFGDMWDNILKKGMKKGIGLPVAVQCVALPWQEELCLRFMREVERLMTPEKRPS

ABHD6 [3] = molecular target: T3, ABHD6 (Mus musculus, UniProt Q8R2Y0); experiment: In vitro competitive activity-based protein profiling (Table 2, % inhibition at 1 μM); format: biochemical; settings: read-out: % Inhibition at 1 μM ABHD6
T3 sequence (Q8R2Y0 1-336): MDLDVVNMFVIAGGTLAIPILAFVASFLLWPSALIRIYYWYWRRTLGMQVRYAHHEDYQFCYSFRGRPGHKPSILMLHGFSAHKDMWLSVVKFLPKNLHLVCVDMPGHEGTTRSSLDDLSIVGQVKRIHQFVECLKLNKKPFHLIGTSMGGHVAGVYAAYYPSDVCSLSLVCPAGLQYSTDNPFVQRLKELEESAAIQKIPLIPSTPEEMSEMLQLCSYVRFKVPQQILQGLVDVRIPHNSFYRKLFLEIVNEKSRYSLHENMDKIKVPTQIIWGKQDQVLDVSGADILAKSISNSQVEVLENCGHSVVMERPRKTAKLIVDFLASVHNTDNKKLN

FAAH [4] = molecular target: T2, FAAH; experiment: as above; format: biochemical; settings: read-out: % Inhibition at 1 μM FAAH
ABHD6 [5] = molecular target: T3, ABHD6; experiment: biochemical; settings: in vitro competitive ABPP
MAGL [6] = molecular target: T1, MAGL; experiment: In vitro competitive activity-based protein profiling (Table 2, % inhibition at 1 μM); format: biochemical; settings: read-out: % Inhibition at 1 μM MAGL
Method: After 30 min, FP—Rh (1.0 μL, 50 μM in DMSO) was added and the mixture was incubated for another 30 min at 37° C. Reactions were quenched with SDS loading buffer (50 μL-4×) and run on SDS-PAGE.
Cell lysates were diluted with mock proteomes for use in competitive ABPP experiments.

[7] = mouse, in vitro competitive ABPP, read-out: Mouse (IC50 value, nM) MAGL

| SMILES | IC50 (MAGL [1]; [7]) [nM] | IC50 (FAAH [2]) [nM] | inhibition at 1 µM (ABHD6 [3]) [%] | inhibition at 1 µM (FAAH [4]) [%] | IC50 (ABHD6 [5]) [nM] | inhibition at 1 µM (MAGL [6]) [%] | IC50 (MAGL [1]) [nM] |
| --- | --- | --- | --- | --- | --- | --- | --- |
| O=C(OC(C(F)(F)F)C(F)(F)F)N1CC2CN(Cc3ccc(N4CCOCC4)cc3C(F)F)CC2C1 (stereo not drawn) [Example 200, 1,1,1,3,3,3-hexafluoropropan-2-yl 5-(2-(difluoromethyl)-4-morpholinobenzyl)hexahydropyrrolo[3,4-c]pyrrole-2(1H)-carboxylate] | 100 to 1000 | 1000 to 10000 | < 25 | 25 to 75 | 1000 to 10000 | > 75 |  |
| Cc1c(CN2CC3CN(C(=O)OC(C(F)(F)F)C(F)(F)F)CC3C2)cccc1N1CCC(F)(F)CC1 (stereo not drawn) [Example 153, 1,1,1,3,3,3-hexafluoropropan-2-yl 5-[[3-(4,4-difluoropiperidin-1-yl)-2-methylphenyl]methyl]-octahydropyrrolo[3,4-c]pyrrole-2-carboxylate] | < 100 | 1000 to 10000 | < 25 | 25 to 75 | > 10000 | > 75 |  |
| O=C(OC(C(F)(F)F)C(F)(F)F)N1CC2CN(Cc3cc(CN4CCCCC4)cc(OC(F)(F)F)c3)CC2C1 (stereo not drawn) [Example 184, 1,1,1,3,3,3-hexafluoropropan-2-yl 5-(3-(piperidin-1-ylmethyl)-5-(trifluoromethoxy)benzyl)hexahydropyrrolo[3,4-c]pyrrole-2(1H)-carboxylate] | 100 to 1000 | 1000 to 10000 | < 25 | < 25 | 1000 to 10000 | > 75 |  |
| O=C(OC(C(F)(F)F)C(F)(F)F)N1CC2CN(Cc3ccc(Cl)cc3N3CCN4CCC[C@@H]4C3)CC2C1 (stereo partly drawn) [Example 35, 1,1,1,3,3,3-Hexafluoropropan-2-yl 5-(4-chloro-2-((R)-hexahydropyrrolo[1,2-a]pyrazin-2(1H)-yl)benzyl)-hexahydropyrrolo[3,4-c]pyrrole-2(1H)-carboxylate] | 100 to 1000 | > 10000 | < 25 | < 25 | 1000 to 10000 | > 75 |  |
| O=C(ON1C(=O)CCC1=O)N1CC2CN(Cc3ccc(Cl)cc3N3CC4CCC(C3)O4)CC2C1 (stereo not drawn) [Example 81, 2,5-Dioxopyrrolidin-1-yl 5-(2-(8-oxa-3-azabicyclo[3.2.1]octan-3-yl)-4-chlorobenzyl)hexahydropyrrolo[3,4-c]pyrrole-2(1H)-carboxylate] |  | 1000 to 10000 | 25 to 75 | < 25 | 1000 to 10000 | 25 to 75 | 100 to 1000 |
| CC1COCCN1c1ccc(CN2CC3CN(C(=O)OC(C(F)(F)F)C(F)(F)F)CC3C2)c(Cl)c1 (stereo not drawn) [Example 27, 1,1,1,3,3,3-Hexafluoropropan-2-yl 5-[[2-chloro-4-(3-methylmorpholin-4-yl)phenyl]methyl]-octahydropyrrolo[3,4-c]pyrrole-2-carboxylate] | < 100 | 1000 to 10000 | < 25 | 25 to 75 | 1000 to 10000 | > 75 |  |
| Cc1c(CN2CC3CN(C(=O)OC(C(F)(F)F)C(F)(F)F)CC3C2)cccc1C(=O)N1CCCCC1 (stereo not drawn) [Example 187, 1,1,1,3,3,3-hexafluoropropan-2-yl 5-(2-methyl-3-(piperidine-1-carbonyl)benzyl)hexahydropyrrolo[3,4-c]pyrrole-2(1H)-carboxylate] | < 100 | 1000 to 10000 | 25 to 75 | < 25 | 1000 to 10000 | > 75 |  |
| Cc1cccc(CN2CC3CN(C(=O)OC(C(F)(F)F)C(F)(F)F)CC3C2)c1N1CCN(C)CC1 (stereo not drawn) [Example 147, 1,1,1,3,3,3-hexafluoropropan-2-yl 5-[[3-methyl-2-(4-methylpiperazin-1-yl)phenyl]methyl]-octahydropyrrolo[3,4-c]pyrrole-2-carboxylate] | 100 to 1000 | > 10000 | < 25 | < 25 | > 10000 | > 75 |  |
| O=C(OC(C(F)(F)F)C(F)(F)F)N1CC2CN(Cc3cc(CN4CCOCC4)cc(OC(F)(F)F)c3)CC2C1 (stereo not drawn) [Example 183, 1,1,1,3,3,3-hexafluoropropan-2-yl 5-(3-(morpholinomethyl)-5-(trifluoromethoxy)benzyl)hexahydropyrrolo[3,4-c]pyrrole-2(1H)-carboxylate] | 100 to 1000 | 1000 to 10000 | < 25 | < 25 | 1000 to 10000 | > 75 |  |
| O=C(OC(C(F)(F)F)C(F)(F)F)N1CC2CN(Cc3ccc(N4CCOCC4)cc3OC(F)(F)F)CC2C1 (stereo not drawn) [Example 11, 1,1,1,3,3,3-Hexafluoropropan-2-yl 5-[[4-(morpholin-4-yl)-2-(trifluoromethoxy)phenyl]methyl]-octahydropyrrolo[3,4-c]pyrrole-2-carboxylate] | < 100 | 100 to 1000 | < 25 | > 75 | 100 to 1000 | > 75 |  |
| Cn1nc(-c2cccc(F)c2)cc1CN1CC2CN(C(=O)OC(C(F)(F)F)C(F)(F)F)CC2C1 (stereo not drawn) [Example 195, 1,1,1,3,3,3-hexafluoropropan-2-yl 5-((3-(3-fluorophenyl)-1-methyl-1H-pyrazol-5-yl)methyl)hexahydropyrrolo[3,4-c]pyrrole-2(1H)-carboxylate] | < 100 | 1000 to 10000 | 25 to 75 | < 25 | 100 to 1000 | > 75 |  |
| CCN1CCN(c2cccc(CN3CC4CN(C(=O)OC(C(F)(F)F)C(F)(F)F)CC4C3)c2C)CC1 (stereo not drawn) [Example 155, 1,1,1,3,3,3-hexafluoropropan-2-yl 5-[[3-(4-ethylpiperazin-1-yl)-2-methylphenyl]methyl]-octahydropyrrolo[3,4-c]pyrrole-2-carboxylate] | 100 to 1000 | 1000 to 10000 | 25 to 75 | 25 to 75 | 1000 to 10000 | > 75 |  |
| O=C(OC(C(F)(F)F)C(F)(F)F)N1CC2CN(Cc3ccc(F)cc3N3CCCC3)CC2C1 (stereo not drawn) [Example 15, 1,1,1,3,3,3-Hexafluoropropan-2-yl 5-[[4-fluoro-2-(pyrrolidin-1-yl)phenyl]methyl]-octahydropyrrolo[3,4-c]pyrrole-2-carboxylate] | 100 to 1000 | 1000 to 10000 | < 25 | 25 to 75 | 1000 to 10000 | > 75 |  |
| O=C(ON1C(=O)CCC1=O)N1CC2CN(Cc3ccc(Cl)cc3N3CCOC4CCCC43)CC2C1 (stereo not drawn) [Example 82, 2,5-Dioxopyrrolidin-1-yl 5-(4-chloro-2-(hexahydrocyclopenta[b][1,4]oxazin-4(4aH)-yl)benzyl)hexahydropyrrolo[3,4-c]pyrrole-2(1H)-carboxylate] | 100 to 1000 | 1000 to 10000 | 25 to 75 | < 25 | 1000 to 10000 | 25 to 75 |  |
| CC(C)c1ccc(CN2CC3CN(C(=O)OC(C(F)(F)F)C(F)(F)F)CC3C2)c(N2CCCC2)c1 (stereo not drawn) [Example 23, 1,1,1,3,3,3-Hexafluoropropan-2-yl 5-[[4-(propan-2-yl)-2-(pyrrolidin-1-yl)phenyl]methyl]-octahydropyrrolo[3,4-c]pyrrole-2-carboxylate] | 100 to 1000 | 1000 to 10000 | < 25 | < 25 | 1000 to 10000 | > 75 |  |
